# Test results reported in US20150119698A1, “Compositions Comprising Near-Infrared Fluorescent Particles And Uses Thereof For Imaging Activated Immune Cells In the CNS” (priority 2012, published 2015).
# How the values were obtained:
# [1] = test system: brains of mice 6 days post infection with P. berghei ANKA versus naïve mice; details: mouse, in vivo
# Protocol: In an additional experiment, C57 black mice were infected with 80,000 parasites (P. berghei ANKA). […] Mice were scanned by IVIS™ optical imager. The measurements were performed for 5 hours. For each mouse, the intensity of brain ICG emission was compared to that of the foot. […] Five hours post injection mice were sacrificed and brains were scanned by TYPHOON™ imager.
# [2] = test system: brain of mice following infection with Plasmodium berghei ANKA or naïve mice; experiment: Probe distribution into the CNS in experimental cerebral malaria, images 4 hours post injection; assay type: in vivo; details: tail vein injection
structure (smiles),measurement,setting,value
"CC1(C)C(/C=C/C=C/C=C/C=C2\N(CCCCS(=O)(=O)O)c3ccc4ccccc4c3C2(C)C)=[N+](CCCCS(=O)(=O)[O-])c2ccc3ccccc3c21 [free ICG, Indocyanine green]","brain emission, infected versus naïve mice (statistical difference)",[1],not statistically different
same,uptake into the brain of diseased mice,[2]; mice infected with Plasmodium berghei ANKA,"but not free ICG, were preferentially uptaken into the brain"
same,fluorescence in the brain of naïve mice,[2]; naïve mice,no significant fluorescence
